Measured values published in US8852590B2, “Compositions and methods for treating cancer” (Merck Sharp & Dohme Corp., priority 2009, dated 2014).
Entries after “also recorded” stand apart in the source; their conditions may differ.

Experiments:
[1] = system: noninfected Sf9 insect cells; assay: FACScan reactivity of MAb on noninfected Sf9 insect cells; assay type: binding
Method: For the immunization stage, mice were injected twice, by the subcutaneous route, with 8 μg of recombinant IGF-IR. Three days before the fusion of the cells of the […] with the cells of the murine myeloma Sp2OAg14, the mice were stimulated by an intravenous injection of 3 μg of the recombinant receptor. Fourteen days after the fusion, the supernatants of hybridomas were screened by ELISA, on plates sensitized by recombinant IGF-IR. The hybridomas whose supernatants were found positive were conserved and amplified before being tested on the FACS can so as to verify that the antibodies produced were likewise capable of recognizing native IGF-IR. In order to do this, MCF-7 cells from an estrogen-dependent tumor of the breast overexpressing IGF-IR were incubated with each of the culture supernatants produced by the hybridomas selected in ELISA. […] At this stage of the selection, only the hybridomas secreting MAb at the same time recognizing the recombinant receptor and the native receptor were selected and cloned. The MAb secreted by these hybridomas were produced and then purified before being tested on the FACScan, according to the method described above, on […] expressing IGF-IR or IR in order to eliminate the hybridomas at the same time recognizing the two receptors.

MCF-7 cells = assay: IGF-I induced proliferation of MCF-7 cells (tritiated thymidine incorporation); assay type: cell-based; details: antibody 10 μg/ml; IGF-I 1 to 50 ng/ml
Text: The cell proliferation is estimated by following on the […] the incorporation of tritiated thymidine by the cells. The results are expressed as a proliferative index.

MCF-7 tumor = assay: Established MCF-7 tumor model in nude mice; assay type: in vivo; details: 250 μg/dose/mouse twice per week, 5 to 6 weeks
Method: The in vivo selection was carried out in an established tumor model. In order to do this, nude mice received a subcutaneous implant of slow-release estrogen, indispensable for the taking of the tumor in a murine model. Twenty-four hours after implantation of the estrogens, 5.10^6 MCF-7 cells are grafted onto the right flank of the mouse subcutaneously. Five days after this cell graft, the tumors are measurable and batches of 6 mice are formed at random. The treatment of the mice is carried out twice per week, during 5 to 6 weeks, at the dose of 250 μg/dose/mouse. In the control group, the mice are treated in the same fashion with a murine control isotype.

AKT-P = details: treatment of patients, O'Reilly et al 2006; cited from earlier work
[2] = system: PI3 Kinase signaling pathway in H2122 cells; assay: Western blot of PI3K pathway signaling in H2122 cells; assay type: cell-based, human; details: 4 hrs
Method: Methods: All the NSCLC cell lines were obtained from ATCC and maintained in RPMI 1640 with 10% fetal bovine serum (Invitrogen). […] Samples were western blotted with indicated total or phosphospecific antibodies followed by a secondary antibody (Cell Signaling Technology, CST) and then incubated with SuperSignal chemiluminescence substrate (Pierce). The blots were then exposed to a Kodak Biomax Light Film. The antibodies against ERK, p-ERK (Thr202/Tyr204), AKT and p-AKT (Ser473), IGF S6K & P-S6K (T389), IRS1 & P-IRS1 (S302) and actin were obtained from CST. Cell cycle analysis was performed in H2122 cells following 24 hr treatment with indicated compounds (see above). One million cells were permiabilized and stained with propidium Iodide (PI) as described by the manufacturer (BD Pharmingen #550825). PI binds to both DNA and RNA, so the latter was removed by digestion with ribonucleases (RNase A). The content of DNA as determined by flow cytometry, can reveal useful information about the cell cycle. Cells in G2 and M phases of the cell cycle have double the DNA content of those in G0 and G1 phases. Cells in S phase have a DNA content lying between these extremes. PI is detected in the orange range of the spectrum using a 562-588 nm band pass filter using a flow cytometer. […] Both compounds act by inhibiting oncogenic signaling through the PI3 Kinase signaling pathway. […]

H2122 cell line = assay: Soft agar colony formation assay, H2122; assay type: cell-based, human; details: Ridaforolimus 10 nM, MK-0646 10 ug/ml, no supplemented IGF
Method: (§1) The colony formation assay was performed in the absence of supplemented IGF. […] No significant correlation of KRAS-status and response to the combination was observed.
(§2) Methods: Soft agar assays were conducted in 96 well glass bottom plates (MatriCal). Cells were seeded at a concentration of 3,000-9,000 cells per well in 100 μl RMPI 1640 supplemented with 14% FBS and 0.3% (w/v) SeaPlaque Agarose (Lonza Rockland, Inc) on top of a bottom layer of consisting of the same culture media supplemented with 0.8% agarose. Compounds were added in 100 μl of culture media supplemented after agarose had solidified. Cells were incubated for 7-14 days before staining overnight with LavaCell (Active Motif). Colonies were quantified using an Isocyte™ laser scanning cytometer. […] The RTK status was evaluated in total protein lysates using the P-RTK arrays (R&D biosciences) as described by the manufacturer. The activating mutations in KRAS were identified from published cancer genome data bases (Sanger).

[3] = system: A549 human NSCLC xenograft; assay: A549 mutant-KRAS lung xenograft model; assay type: in vivo, athymic Nude-Foxn1nu mice
Method: Method: 2.5×10^6 A549 human NSCLC cells were injected subcutaneously into the right flank of 4-6 week old athymic Nude-Foxn1nu mice (Charles River Laboratories). When tumors reached a size of ˜300 mm3 (Length*Width*Width*0.5), mice were randomized into treatment groups. […] Animals were weighed and tumor volumes were determined by calipering 2 times per week during the study and at termination. Tumor weight was determined at termination. On day 21 Animals were sacrificed by CO2 asphyxiation. Mice were sacrificed 24 hr after the final dose. At time of sacrifice, the tissue samples were collected and processed.

A549 cell line = assay: Soft agar colony formation assay, A549; assay type: cell-based, human; details: Ridaforolimus 10 nM, MK-0646 10 ug/ml, no supplemented IGF
Method: as §1, §2

H1703 = assay: Soft agar colony formation assay, H1703; assay type: cell-based, human; details: H1703, low expression of IGF1R
Method: as §1, §2

7C10: murine monoclonal antibody secreted by hybridoma deposited at CNCM, IgG1, directed against IGF-IR [Example 7C10]
MFI (Mean fluorescence intensity) [1]: 8.6 | inhibition of proliferation of MCF-7 cells induced by IGF-I (MCF-7 cells): significantly inhibits | inhibition of tumor growth (MCF-7 tumor): very significant inhibition

CO[C@H]1C[C@@H]2CC[C@@H](C)[C@@](O)(O2)C(=O)C(=O)N2CCCC[C@H]2C(=O)O[C@H]([C@H](C)C[C@@H]2CC[C@@H](OCCO)[C@H](OC)C2)CC(=O)[C@H](C)/C=C(\C)[C@@H](O)[C@@H](OC)C(=O)[C@H](C)C[C@H](C)/C=C/C=C/C=C/1C [RAD001]
AKT-P level in patients (AKT-P): elevated AKT-P

CO[C@H]1C[C@@H]2CC[C@@H](C)[C@@](O)(O2)C(=O)C(=O)N2CCCC[C@H]2C(=O)O[C@H]([C@H](C)C[C@@H]2CC[C@@H](OP(C)(C)=O)[C@H](OC)C2)CC(=O)[C@H](C)/C=C(\C)[C@@H](O)[C@@H](OC)C(=O)[C@H](C)C[C@H](C)/C=C/C=C/C=C/1C [Ridaforolimus, Dimethyl-Phosphinic Acid C-43 Rapamycin Ester]
phosphorylation of S6K ([2]; Ridaforolimus 10 nM): preventing | soft agar growth inhibition (H2122 cell line): only limited single agent activity | Relative tumor growth ([3]; Rida 0.1mpk, 3 weeks, end of treatment): 35.01% | soft agar growth inhibition (A549 cell line): only limited single agent activity

C#Cc1cccc(Nc2ncnc3cc(OCCOC)c(OCCOC)cc23)c1 [Erlotinib]
tumor growth inhibition ([3]; Erlotinib treated group compared to vehicle): No significant growth inhibition; also recorded: did not result in any appreciable tumor growth inhibition

MK-0646: humanized antibody binding IGF-1R as well as the IR/IGF-1 hybrid receptor
AKT phosphorylation ([2]; MK-0646 10 ng/ml): preventing | soft agar growth inhibition (H2122 cell line): only limited single agent activity | soft agar single agent sensitivity (H1703): resistant | soft agar growth inhibition (A549 cell line): only limited single agent activity
